In patent US20230148450A9, “BICYCLIC HETEROARYL COMPOUNDS AND USES THEREOF” (Revolution Medicines, Inc., priority 2019, published 2023):
Where a name gives a salt, the structure may show the parent alone. Read-outs that look alike come from different tables or passages of the source.

Tests used:
[1] = target: T1, SOS1-mediated exchange of KRAS-4B:GDP to KRAS-4B:GTP (Homo sapiens, UniProt Q07889); assay: Bodipy-FL-GTP Association Assay; assay type: biochemical; details: SOS1 GEF activity on KRAS-4B, 22° C.
T1 construct: SOS1 (Cytoskeleton Inc., Cat. CS-GE02); purchased Cytoskeleton Inc. CS-GE02 (SOS1); CSRS03 (KRAS4-B)
T1 sequence (Q07889 564-1049 limits assumed): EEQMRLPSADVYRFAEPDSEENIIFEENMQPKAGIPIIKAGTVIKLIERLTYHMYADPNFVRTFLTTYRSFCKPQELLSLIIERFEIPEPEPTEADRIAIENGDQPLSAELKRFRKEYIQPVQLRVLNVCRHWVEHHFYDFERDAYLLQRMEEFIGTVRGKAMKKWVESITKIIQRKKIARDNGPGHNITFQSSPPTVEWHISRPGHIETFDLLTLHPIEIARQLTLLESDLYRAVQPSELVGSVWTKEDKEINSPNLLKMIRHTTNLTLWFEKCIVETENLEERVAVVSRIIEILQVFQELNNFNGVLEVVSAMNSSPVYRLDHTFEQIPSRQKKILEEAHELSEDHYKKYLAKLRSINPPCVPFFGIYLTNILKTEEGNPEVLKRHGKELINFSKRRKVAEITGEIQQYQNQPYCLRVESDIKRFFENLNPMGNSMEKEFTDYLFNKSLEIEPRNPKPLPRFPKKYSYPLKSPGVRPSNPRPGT
Protocol: A low IC50 value for a given compound is indicative of high potency of said compound in inhibiting the guanine nucleotide exchange factor (GEF) activity of SOS1 on KRAS-4B in this assay setting. Reagents: BODIPY FL GTP (ThermoFisher Scientific, Cat. G12411); KRAS4-B (Cytoskeleton Inc., Cat. CSRS03); SOS1 (Cytoskeleton Inc., Cat. CS-GE02); 2× Assay Buffer: 40 mM Tris-HCl, pH 7.5; 100 mM NaCl; 20 mM MgCl2; 0.1 mg/mL BSA; 0.02% NP-40 Assay Procedure: Test compounds were dissolved in DMSO to create 20 mM master stocks. The stocks were diluted in a 3× dilution series in 100% DMSO to achieve 100× compound stocks. A 1 μl spot of each test compound stock was delivered to two adjacent wells of a 96-well assay plate prior to running the assay. Reaction Mix preparation: The following were mixed in order at room temperature to obtain the “Reaction Mix” (5.75 mL 2× Exchange Buffer; 3.22 mL MilliQ ddH2O; 3 μL 5 mM BODIPY FL GTP; 230 μL 50 μM KRAS-4B; 9.203 mL Total volume. Reaction initiation: 80 μL of Reaction Mix was pipetted into each well of a half-area black 96-well plate (Corning, Cat. 3686) containing either a 1 μL spot of DMSO or a 1 μL spot test compound at the concentrations listed above. 20 μL of 1 μM SOS1 was then added to each well to initiate the reaction. For the no GEF control wells this was replaced with 1× exchange buffer. Kinetic measurement: The reaction was monitored in a SpectraMax M2 Microplate Reader (Molecular Devices) under the following protocol: 5 second rapid circular mixing before first read; 61 readings, 30 seconds apart; Assay temperature: 22° C.; Excitation wavelength: 485 nm; Emission wavelength: 513 nm. Data Analysis: The V max values for the SOS1-mediated BODIPY FL GTP exchange curves in the presence of test compounds were normalized to the most dilute test sample columns or DMSO only control wells to give the % Activity for each concentration of test compound. Plots of % Activity vs. the Log10 of the compound concentration were fit by non-linear regression to a 4-parameter logistic model.

[2] = tested on: cellular pERK in PC-9 cells (EGFR Ex19Del); assay: Potency Assay: pERK; assay type: cell-based; details: Homo sapiens, read-out: SOS1 pERK IC50
Procedure, shortened: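 Cells plated the day before and treated 1 h at 37 °C with 10-point 3-fold dilutions in duplicate, top 10 μM. pERK1/2 in lysates read by AlphaLISA SureFire Ultra. IC50 from 4-parameter sigmoidal fit of signal vs log concentration.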

[3] = target: T2, SOS1 nucleotide exchange of KRAS (catalytic domain of SOS1, residues 564-1049; wild-type KRAS) (Homo sapiens, UniProt Q07889); assay: Mode of Action Assay: Inhibition of SOS1 Nucleotide Exchange Activity (TR-FRET); assay type: biochemical; details: TR-FRET signal
T2 construct: tagless catalytic domain of SOS1 (residues 564-1049)
T2 sequence (Q07889 564-1049): T1 sequence (Q07889 564-1049 limits assumed)
Procedure, shortened: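 SOS1 catalytic domain (564-1049, 100 nM as diluted) preincubated 20 min with compounds (100 μM–1.7 nM, 11-point 3-fold) in HEPES pH 7.5 buffer with MgCl2. Then mixed with avi-KRAS(1-169), Streptavidin-Tb and EDA-GTP-DY-647P1 for 30 min at room temperature. TR-FRET normalized to DMSO and positive control, triplicates; IC50 by four-parameter logistic fit.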

[4] = target: T3, SOS1 catalytic domain (residues 564-1049) (Homo sapiens, UniProt Q07889); assay: Binding affinity to SOS1 using Surface Plasmon Resonance (SPR); details: avi-tagged SOS1 catalytic domain immobilized on sensor chip; read-out: SOS1 SPR Equilibrium Kd
T3 construct: SOS1 catalytic domain (residues 564-1049) immobilized on a sensor chip
T3 sequence (Q07889 564-1049): T1 sequence (Q07889 564-1049 limits assumed)
Procedure, shortened: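 Avi-tagged human SOS1 catalytic domain (564-1049) captured on streptavidin chip (~6000 RU); compounds flowed at 50 μL/min, 5 μM to 4.9 nM in ten 2-fold steps, in HEPES/NaCl/P20 buffer with 2% DMSO, double-referenced. Kd from end-of-association response plotted versus concentration.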

[5] = PC-9 cells (EGFR Ex19Del), 1 hour incubation, AlphaLISA p-ERK1/2

| Compound | IC50 [1] | IC50 [2, 5] | IC50 [3] | Kd [4] | IC50 ([2]; PC-9, 1 h) |
| --- | --- | --- | --- | --- | --- |
| Cc1nc(N[C@H](C)c2cccc(C(F)(F)F)c2)c2sc(C3=CCNCC3)cc2n1 [Example 1, 2-methyl-6-(1,2,3,6-tetrahydropyridin-4-yl)-N-[(1R)-1-[3-(trifluoromethyl)phenyl]ethyl]thieno [3,2-d] pyrimidin-4-amine] | 1000 to 5000 nM |  |  |  |  |
| C[C@@H](Nc1ncnc2sc(C3=CCNCC3)cc12)c1cc(N)cc(C(F)(F)F)c1 [Example 3, N-[(1R)-1-[3-amino-5-(trifluoromethyl)phenyl]ethyl]-6-(1,2,3,6-tetrahydropyridin-4-yl)thieno[2,3-d]pyrimidin-4-amine] | 1000 to 5000 nM |  |  |  |  |
| COCC(=O)N1CC=C(c2cc3c(N[C@H](C)c4cc(N)cc(C(F)(F)F)c4)ncnc3s2)CC1 [Example 4, 1-[4-(4-{[(1R)-1-[3-amino-5-(trifluoromethyl)phenyl]ethyl]amino}thieno[2,3-d]pyrimidin-6-yl)-1,2,3,6-tetrahydropyridin-1-yl]-2-methoxyethan-1-one] | 1000 to 5000 nM |  |  |  |  |
| Cc1nc(N[C@H](C)c2cccc(C(F)(F)F)c2)c2sc([C@]3(O)CC[C@@H](O)CC3)cc2n1 [Example 5, trans-1-(2-methyl-4-{[(1R)-1-[3-(trifluoromethyl)phenyl]ethyl]amino}thieno[3,2-d]pyrimidin-6-yl) cyclohexane-1,4-diol] | > 5000 nM |  |  |  |  |
| Cc1nc(N[C@H](C)c2cccc(C(F)(F)F)c2)c2sc([C@]3(O)CC[C@H](O)CC3)cc2n1 [Example 6, cis-1-(2-methyl-4-{[(1R)-1-[3-(trifluoromethyl)phenyl]ethyl]amino}thieno[3,2-d]pyrimidin-6-yl)cyclohexane-1,4-diol] | 1000 to 5000 nM |  |  |  |  |
| C[C@@H](Nc1ncnc2sc(C3(O)CCC(O)CC3)cc12)c1cc(N)cc(C(F)(F)F)c1 (stereo partly drawn) [Example 7, 1-(4-{[(1R)-1-[3-amino-5-(trifluoromethyl)phenyl]ethyl]amino}thieno[2,3-d]pyrimidin-6-yl)cyclohexane-1,4-diol] | < 1000 nM |  |  |  |  |
| C[C@@H](Nc1ncnc2cc(C3=CCNCC3)sc12)c1cc(N)cc(C(F)(F)F)c1 [Example 9, N-[(1R)-1-[3-amino-5-(trifluoromethyl)phenyl]ethyl]-6-(1,2,3,6-tetrahydropyridin-4-yl)thieno[3,2-d]pyrimidin-4-amine] | < 1000 nM |  |  |  |  |
| C[C@@H](Nc1nc(Cl)nc2[nH]c(C(=O)N3CCOCC3)nc12)c1cccc(C(F)(F)CO)c1 [Example 73, (R)-(2-chloro-6-((1-(3-(1,1-difluoro-2-hydroxyethyl)phenyl)ethyl)amino)-9H-purin-8-yl)(morpholino)methanone] |  | > 1000 nM | < 1000 nM | ≤ 400 nM |  |
| C[C@@H](Nc1nc(Cl)cn2nc(C(=O)N3CCOCC3)cc12)c1cc(N)cc(C(F)(F)F)c1 [Example 74] |  | < 1000 nM | > 1000 nM | > 400 nM |  |
| Cc1cn2nc(C(=O)N3CCN(C4COC4)CC3)cc2c(N[C@H](C)c2cc(N)cc(C(F)(F)F)c2)n1 [Example 76] |  | < 1000 nM | < 1000 nM | ≤ 400 nM |  |
| Cc1cn2nc(C(=O)N3CC4CC3CN4C)cc2c(N[C@H](C)c2cc(N)cc(C(F)(F)F)c2)n1 (stereo partly shown) [Example 81] |  | < 1000 nM | < 1000 nM | ≤ 400 nM |  |
| Cc1cn2nc(C(=O)N3CCN4CCC4C3)cc2c(N[C@H](C)c2cc(N)cc(C(F)(F)F)c2)n1 (stereo partly shown) [Example 82] |  | < 1000 nM | < 1000 nM | ≤ 400 nM |  |
| C[C@@H](Nc1ncnc2sc(C(=O)N3CCOCC3)cc12)c1cccc(C(F)(F)CO)c1 [Example 83, (R)-(4-((1-(3-(1,1-difluoro-2-hydroxyethyl)phenyl)ethyl)amino)thieno[2,3-d]pyrimidin-6-yl)(morpholino)methanone] |  | < 1000 nM | < 1000 nM | ≤ 400 nM |  |
| C[C@@H](Nc1ncnc2sc(C(=O)N3CCN(C4COC4)CC3)cc12)c1cccc(C(F)F)c1F [Example 84, (R)-(4-((1-(3-(difluoromethyl)-2-fluorophenyl)ethyl)amino)thieno[2,3-d]pyrimidin-6-yl)(4-(oxetan-3-yl)piperazin-1-yl)methanone] |  | < 1000 nM | < 1000 nM | ≤ 400 nM |  |
| C[C@@H](Nc1nccc2nc(C(=O)N3CCNCC3)cn12)c1cccc(C(F)F)c1F [Example 85, [5-[[(1R)-1-[3-(difluoromethyl)-2-fluoro-phenyl]ethyl]amino]imidazo[1,2-c]pyrimidin-2-yl]-piperazin-1-yl-methanone hydrochloride] |  |  | < 1000 nM | ≤ 400 nM | < 1000 nM |
| C[C@@H](Nc1nccc2nc(C(=O)N3CCN(C4COC4)CC3)cn12)c1cccc(C(F)F)c1F [Example 87] |  | > 1000 nM | < 1000 nM | ≤ 400 nM |  |
| C[C@@H](Nc1nccc2nc(C(=O)N3CC4(C3)CN(C3COC3)C4)cn12)c1cccc(C(F)F)c1F [Example 88] |  | < 1000 nM | < 1000 nM | ≤ 400 nM |  |
| CC(=O)N1CC2(C1)CN(C(=O)c1cn3c(N[C@H](C)c4cccc(C(F)F)c4F)nccc3n1)C2 [Example 89] |  | < 1000 nM | < 1000 nM | ≤ 400 nM |  |
| C[C@@H](Nc1nccc2nc(C(=O)N3CC4(C3)CN(C3CC3)C4)cn12)c1cccc(C(F)F)c1F [Example 90] |  | < 1000 nM | < 1000 nM | ≤ 400 nM |  |
| C[C@@H](Nc1nccc2nc(C(=O)N3CC4(CN(CC(F)(F)F)C4)C3)cn12)c1cccc(C(F)F)c1F [Example 91] |  | < 1000 nM | < 1000 nM | ≤ 400 nM |  |
| C[C@@H](Nc1nc(Cl)nn2cc(C(=O)N3CC4(CN(C)C4)C3)cc12)c1cccc(C(F)(F)F)c1 [Example 97] |  | < 1000 nM | < 1000 nM | ≤ 400 nM |  |
| C[C@@H](Nc1nc(Cl)nn2cc(C(=O)N3CC4(CN(C)C4)C3)cc12)c1cccc(C(F)F)c1F [Example 99] |  | < 1000 nM | < 1000 nM | ≤ 400 nM |  |
| C[C@@H](Nc1nc(Cl)nn2cc(C(=O)N3CC4(COC4)C3)cc12)c1cccc(C(F)F)c1F [Example 100] |  | < 1000 nM | < 1000 nM | ≤ 400 nM |  |
| C[C@@H](Nc1nc(Cl)nc2c1nc(C(=O)N1CCOCC1)n2C)c1cccc(C(F)(F)CO)c1 [Example 103, (R)-(2-chloro-6-((1-(3-(1,1-difluoro-2-hydroxyethyl)phenyl)ethyl)amino)-9-methyl-9H-purin-8-yl)(morpholino)methanone] |  | < 1000 nM | < 1000 nM | > 400 nM |  |
